Measurements taken from patent publication US11118065B2, “Fluorenylaminoketone photoinitiator, preparation method thereof, and UV photocurable composition containing same” (CHANGZHOU TRONLY ADVANCED ELECTRONIC MATERIALS CO., LTD., priority 2017, dated 2021).

Experiment: Test of solubility property
Settings: for HDDA (g/100 g): largest weight dissolved in 100 g of 1,6-hexanediol diacrylate (HDDA) at 20° C.; for Acetone (g/100 g): largest weight dissolved in 100 g of acetone at 20° C.

Row | SMILES | HDDA (g/100 g) | Acetone (g/100 g) | solubility (in the UV curing ink formulation, about 10% of butanone solvent required to dissolve completely)
1 | C=CCC1(CC=C)c2cc(OC)ccc2-c2ccc(C(=O)C(C)(C)N3CCOCC3)cc21 [Compound 4] | >15 g/100 g | >30 g/100 g | 
2 | CCCCC1(CCCC)c2ccccc2-c2ccc(C(=O)C(C)(C)N3CCOCC3)cc21 [Compound 5] | >15 g/100 g | >30 g/100 g | 
3 | CCCCC1(CCCC)c2cc(C(=O)c3ccccc3)ccc2-c2ccc(C(=O)C(C)(C)N3CCOCC3)cc21 [Compound 9] | >15 g/100 g | >30 g/100 g | 
4 | CCCCC1(CCCC)c2cc(C(=O)C(CC)(Cc3ccccc3)N(C)C)ccc2-c2ccc(N3CCOCC3)cc21 (stereo not shown) [Compound 14] | >15 g/100 g | >30 g/100 g | 
5 | CC(C)(C(=O)c1ccc2c(c1)Cc1cc(C(=O)C(C)(C)N3CCCCC3)ccc1-2)N1CCCCC1 [Compound 24] | >15 g/100 g | >30 g/100 g | 
6 | C=CCC1(CC=C)c2ccccc2-c2ccc(C(=O)C(CC)(Cc3ccccc3)N(C)C)cc21 (stereo not shown) [Compound 34] | >15 g/100 g | >30 g/100 g | 
7 | CCC(Cc1ccccc1)(C(=O)c1ccc2c(c1)C(C)(C)c1cc(N3CCOCC3)ccc1-2)N(C)C (stereo not shown) [Compound 38, 2-benzyl-2-dimethylamino-9,9-dimethyl-1-(7-morpholinofluorenyl)butanone] | >15 g/100 g | >30 g/100 g | 
8 | C=CCC(CC)(C(=O)c1ccc2c(c1)C(C)(C)c1cc(N3CCCCC3)ccc1-2)N(C)C (stereo not shown) [Compound 39, 2-allyl-2-dimethylamino-9,9-dimethyl-2-(7-piperidinylfluorenyl)butanone] | >15 g/100 g | >30 g/100 g | 
9 | CCCCC1(CCCC)c2ccccc2-c2ccc(C(=O)C(CC)(Cc3ccccc3)N(C)C)cc21 (stereo not shown) [Compound 40, 2-benzyl-2-dimethylamino-9,9-dibutylfluorene-1-butanone] | >15 g/100 g | >30 g/100 g | 
10 | CCCCC1(CCCC)c2cc(C(=O)c3ccccc3)ccc2-c2ccc(C(=O)C(CC)(Cc3ccccc3)N(C)C)cc21 (stereo not shown) [Compound 41, 2-benzyl-2-dimethylamino-9,9-dibutyl-1-(7-benzoyl)butanone] | >15 g/100 g | >30 g/100 g | 
11 | CCCCN(CCCC)c1ccc2c(c1)C(C)(C)c1cc(C(=O)C(CC)(Cc3ccccc3)N(C)C)ccc1-2 (stereo not shown) [Compound 42] | >15 g/100 g | >30 g/100 g | 
12 | CCCC1(CCC)c2cc(C(=O)C(CC)(Cc3ccccc3)N(C)C)ccc2-c2ccc(N3CCCCC3)cc21 (stereo not shown) [Compound 43] | >15 g/100 g | >30 g/100 g | 
13 | CCC(Cc1ccccc1)(C(=O)c1ccc2c(c1)C(C)(C)c1cc(N(CCO)CCO)ccc1-2)N(C)C (stereo not shown) [Compound 45] | >15 g/100 g | >30 g/100 g | 
14 | CCC(Cc1ccccc1)(C(=O)c1ccc(N2CCOCC2)cc1)N(C)C (stereo not shown) [Irgacure 369, 2-benzyl-2-dimethylamino-1-(4-morpholinophenyl)butanone, reference compound] | 5 g/100 g | 17 g/100 g | relatively poor
15 | CCC(Cc1ccc(C)cc1)(C(=O)c1ccc(N2CCOCC2)cc1)N(C)C (stereo not shown) [Irgacure 379, 2-(4-methylbenzyl)-2-dimethylamino-1-(4-morpholinophenyl)butanone, reference compound] | 11 g/100 g | 24 g/100 g | 
